Reference: patent publication US6215002A, “Pyrrolopyrrolone derivatives as inhibitors of neutrophil elastase” (priority 1996, dated 2001)
Where a name gives a salt, the structure may show the parent alone.

target: T1, human neutrophil elastase (Homo sapiens, UniProt P08246); assay: In vitro assay of human neutrophil elastase (HNE); assay type: biochemical; settings: 118 nM purified human neutrophil elastase, pH 8.6, 15 min incubation at 30° C., MeO-succinyl-alanyl-alanyl-prolyl-valyl-p-nitroanilide substrate; read-out: HNE IC50
T1 sequence (P08246 30-267): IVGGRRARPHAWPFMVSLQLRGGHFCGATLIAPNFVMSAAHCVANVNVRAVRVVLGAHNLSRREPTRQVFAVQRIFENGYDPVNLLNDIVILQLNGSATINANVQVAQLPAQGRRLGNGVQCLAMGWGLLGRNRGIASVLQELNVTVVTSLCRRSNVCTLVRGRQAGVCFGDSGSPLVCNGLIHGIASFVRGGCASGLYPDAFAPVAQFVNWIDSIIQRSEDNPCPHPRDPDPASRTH
Procedure, shortened: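 Residual activity was taken as the 10 min rate of absorbance rise at 405 nm after adding 0.6 mM MeO-succinyl-AAPV-p-nitroanilide. Curve fitting of activity against concentration gave IC50.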

Compound	IC50
CCC[C@@H]1C(=O)N(S(=O)(=O)c2ccc3ccccc3c2)[C@@H]2CCN(C(=O)CCN3CCCCC3)[C@@H]12 [Example 54, (3S,3aS,6aR)-1-(Naphthalene-2-sulfonyl)-4-(3-piperidin-1-yl-propionyl)-3-propyl-hexahydro-pyrrolo[3,2-b]pyrrol-2-one hydrochloride]	120 nM
CO[C@H]1C(=O)N(S(C)(=O)=O)[C@H]2CCN(C(=O)OCc3ccccc3)[C@H]12 (relative stereo) [Example 156, rel-(3aS,6R,6aS)-4-Methanesulfonyl-6-methoxy-5-oxo-hexahydro-pyrrolo[3,2-b]pyrrole-1-carboxylic acid benzyl ester]	160 nM
CCC[C@H]1C(=O)N(S(C)(=O)=O)[C@H]2CCN(C(=O)Cn3ccccc3=O)[C@H]12 (relative stereo) [Example 112, rel-(3R,3aR,6aS)-1-Methanesulfonyl-4-[(2-oxo-2H-pyridin-1-yl)-acetyl]-3-propyl-hexahydro-pyrrolo[3,2-b]pyrrol-2-one]	222 nM
CCC[C@H]1C(=O)N(S(C)(=O)=O)[C@H]2CCN(C(=O)CCCN3CCOCC3)[C@H]12 (relative stereo) [Example 47, rel-(3R,3aR,6aS)-1-Methanesulfonyl-4-(4-morpholin-4-yl-butyryl)-3-propyl-hexahydro-pyrrolo[3,2-b]pyrrol-2-one]	109 nM
CCC[C@H]1C(=O)N(S(C)(=O)=O)[C@H]2CCN(C(=O)C3CCCN3C)[C@H]12 (relative stereo) [Example 111, rel-(3R,3aR,6aS)-1-Methanesulfonyl-4-(1-methyl-pyrrolidine-2-carbonyl)-3-propyl-hexahydro-pyrrolo[3,2-b]pyrrol-2-one]	580 nM
CCC[C@H]1C(=O)N(S(=O)(=O)c2cccc3cccnc23)[C@H]2CCN(S(C)(=O)=O)[C@H]12 (relative stereo) [Example 52, rel-(3R,3aR,6aS)-4-Methanesulfonyl-3-propyl-1-(quinoline-8-sulfonyl)-hexahydro-pyrrolo[3,2-b]pyrrol-2-one]	222 nM
CCCCOc1ccc(S(=O)(=O)N2CC[C@H]3[C@H]2[C@@H](CCC)C(=O)N3S(C)(=O)=O)cc1 (relative stereo) [Example 214, rel-(3R,3aR,6aS)-4-(4-Butoxy-benzenesulfonyl)-1-methanesulfonyl-3-propyl-hexahydro-pyrrolo[3,2-b]pyrrol-2-one]	464 nM
CCC[C@H]1C(=O)N(S(C)(=O)=O)[C@H]2CCN(C(=O)CCN3CCOCC3)[C@H]12 (relative stereo) [Example 46, rel-(3R,3aR,6aS)-1-Methanesulfonyl-4-(3-morpholin-4-yl-propionyl)-3-propyl-hexahydro-pyrrolo[3,2-b]pyrrol-2-one]	143 nM
CCC[C@H]1C(=O)N(S(C)(=O)=O)[C@H]2CCN(C(=O)/C=C/c3ccc(CN4CCN(C)CC4)cc3)[C@H]12 (relative stereo) [Example 132, rel-(3R,3aR,6aS)-1-Methanesulfonyl-4-{3-(4-(4-methyl-piperazin-1-ylmethy)-phenyl-(E)-acryloyl}-3-propyl-hexahydro-pyrrolo[3,2-b]pyrrol-2-one dihydrochloride]	83 nM
CC[C@H]1C(=O)N(S(=O)(=O)c2ccc3ccccc3c2)[C@H]2CCN(C(=O)CCN3CCCCC3)[C@H]12 (relative stereo) [Example 5, rel-(3R,3aR,6aS)-3-Ethyl-1-(naphthalene-2-sulfonyl)-4-(3-piperidin-1-yl-propionyl)-hexahydro-pyrrolo[3,2-b]pyrrol-2-one hydrochloride]	205 nM
CCC[C@H]1C(=O)N(S(C)(=O)=O)[C@H]2CCN(C(=O)CCCN3CCCCCC3)[C@H]12 (relative stereo) [Example 86, hydrochloride]	103 nM
CCC[C@H]1C(=O)N(S(C)(=O)=O)[C@H]2CCN(C(=O)CN3CCOCC3)[C@H]12 (relative stereo) [Example 107, rel-(3R,3aR,6aS)-1-Methanesulfonyl-4-morpholin-4-yl-acetyl)-3-propyl-hexahydro-pyrrolo[3,2-b]pyrrol-2-one hydrochloride]	143 nM
CCC[C@H]1C(=O)N(S(=O)(=O)c2ccc3ccccc3c2)[C@H]2CCN(C(=O)CCCN3CCCCC3)[C@H]12 (relative stereo) [Example 39, rel-(3R,3aR,6aS)-1-(Naphthalene-2-sulfonyl)-4-(4-piperidin-l-yl-butyryl)-3-propyl-hexahydro-pyrrolo[3,2-b]pyrrol-2-one tartrate]	189 nM
CCC[C@H]1C(=O)N(S(=O)(=O)CC)[C@H]2CCN(C(=O)CCN3CCCCC3)[C@H]12 (relative stereo) [Example 160, rel-(3R,3aR,6aS)-1-Ethanesulfonyl-4-(3-piperidin-1-yl-propionyl)-3-propyl-hexahydro-pyrrolo[3,2-b]pyrrol-2-one DL-tartrate]	119 nM
CCC[C@H]1C(=O)N(S(=O)(=O)C(C)C)[C@H]2CCN(S(=O)(=O)CCCN3CCCCC3)[C@H]12 (relative stereo) [Example 166, rel-(3R,3aR,6aS)-4-(3-Piperidin-1-yl-propane-1-sulfonyl)-1-(propane-2-sulfonyl)-3-propyl-hexahydro-pyrrolo[3,2-b]pyrrol-2-one DL-tartrate]	287 nM

Compounds with a lower IC50, results first:

IC50	Compound
54 nM	CCC[C@H]1C(=O)N(S(=O)(=O)c2ccccc2)[C@H]2CCN(S(=O)(=O)CCCN3CCCCC3)[C@H]12 (relative stereo) [Example 208, rel-(3R,3aR,6aS)-1-Benzenesulfonyl-4-(3-piperidin-1-yl-propane-1-sulfonyl)-3-propyl-hexahydro-pyrrolo[3,2-b]pyrrol-2-one DL-tartrate]
8 nM	CCC[C@H]1C(=O)N(S(C)(=O)=O)[C@H]2CCN(S(=O)(=O)c3ccc(C(=O)NC)cc3)[C@H]12 (relative stereo) [Example 124, rel-(3aS,6R,6aR)-4-(4-Methanesulfonyl-5-oxo-6-hexahydro-pyrrolo[3,2-b]pyrrole-1-sulfonyl)-N-methyl-benzamide]
28 nM	CCC[C@H]1C(=O)N(S(C)(=O)=O)[C@H]2CCN(S(=O)(=O)c3ccc(Cl)cc3)[C@H]12 (relative stereo) [Example 215, rel-(3R,3aR,6aS)-4-(4-Chloro-benzenesulfonyl)-1-methanesulfonyl-3-propyl-hexahydro-pyrrolo[3,2-b]pyrrol-2-one]
42 nM	CCC[C@H]1C(=O)N(S(C)(=O)=O)[C@H]2CCN(C(=O)c3ccc(NC(C)=O)cc3)[C@H]12 (relative stereo) [Example 120, rel-N-[4-(4-Methanesulfonyl-5-oxo-6R-propyl-hexahydro-(3aS,6aR)-pyrrolo[3,2-b]pyrrole-1-carbonyl)-phenyl]-acetamide]
9 nM	CCC[C@H]1C(=O)N(S(C)(=O)=O)[C@H]2CCN(S(=O)(=O)c3cccc(N)c3)[C@H]12 (relative stereo) [Example 235, rel-(3R,3aR,6aS)-4-(3-Amino-benzenesulfonyl)-1-methanesulfonyl-3-propyl-hexahydro-pyrrolo[3,2-b]pyrrol-2-one hydrochloride]
14 nM	CCC[C@H]1C(=O)N(S(C)(=O)=O)[C@H]2CCN(C(=O)/C=C/C(=O)O)[C@H]12 (relative stereo) [Example 129, rel-4-(4-Methanesulfonyl-5-oxo-6R-propyl-hexahydro-(3aS,6aR)-pyrrolo[3,2-b]pyrrol-1-yl)-oxo-but-2-E-enoic acid]
28 nM	CCC[C@H]1C(=O)N(S(C)(=O)=O)[C@H]2CCN(C(=O)c3cccnc3)[C@H]12 (relative stereo) [Example 247, rel-(3R,3aR,6aS)-1-Methanesulfonyl-3-propyl-4-(pyridine-3-carbonyl)-hexahydro-pyrrolo[3,2-b]pyrrol-2-one]
35 nM	CCC[C@H]1C(=O)N(S(C)(=O)=O)[C@H]2CCN(C(=O)c3ccco3)[C@H]12 (relative stereo) [Example 231, rel-(3R,3aR,6aS)-4-(Furan-2-carbonyl)-1-methanesulfonyl-3-propyl-hexahydro-pyrrolo[3,2-b]pyrrol-2-one]
29 nM	CCC[C@H]1C(=O)N(S(=O)(=O)c2cccs2)[C@H]2CCN(C(=O)CCCCCN3CCCCC3)[C@H]12 (relative stereo) [Example 169, rel-(3R,3aR,6aS)-4-(6-Piperidin-1-yl-hexanoyl)-3-propyl-1-(thiophene-2-sulfonyl)-hexahydro-pyrrolo[3,2-b]pyrrol-2-one DL-tartrate]
22 nM	CCC[C@H]1C(=O)N(S(C)(=O)=O)[C@H]2CCN(C(=O)c3ccc(NC(C)=O)nc3)[C@H]12 (relative stereo) [Example 241, rel-N-[5-(4-Methanesulfonyl-5-oxo-6R-propyl-hexahydro(3aS,6aR)-pyrrolo[3,2-b]pyrrole-1-carbonyl)-pyridin-2-yl]-acetamide]
14 nM	CCC[C@H]1C(=O)N(S(C)(=O)=O)[C@H]2CCN(S(=O)(=O)c3ccc(C(=O)NCCN4CCCCC4)cc3)[C@H]12 (relative stereo) [Example 121, rel-4-(4-Methanesulfonyl-5-oxo-6R-propyl-hexahydro-(3aS,6aR)-pyrrolo[3,2-b]pyrrole-1-sulfonyl)-N-(2-piperidin-1-yl-ethyl)-benzamide hydrochloride]
59 nM	CCC[C@H]1C(=O)N(S(=O)(=O)c2ccc3ccccc3c2)[C@H]2CCN(C(=O)CCCN(C)C)[C@H]12 (relative stereo) [Example 25, rel-(3R,3aR,6aS)-4-(4-Dimethylamino-butyryl)-1-(naphthalene-2-sulfonyl)-3-propyl-hexahydro-pyrrolo[3,2-b]-pyrrol-2-one]
64 nM	CCC[C@H]1C(=O)N(S(C)(=O)=O)[C@H]2CCN(C(C)=O)[C@H]12 (relative stereo) [Example 28, rel-(3R,3aR,6aS)-4-Acetyl-1-methanesulfonyl-3-propyl-hexahydro-pyrrolo[3,2-b]pyrrol-2-one]
